Reference: patent US20250144087A1, “USE OF VE607 FOR THE TREATMENT OF SARS-COV-2 INFECTIONS AND RELATED DISEASES” (priority 2022, published 2025)

Key:
[1] = tested on: pseudoviral particles expressing the Spike from SARS-CoV-2; experiment: microbe, parasite or virus in culture; type: cell-based
[2] = target: T1, SARS-CoV-2 RBD (Severe acute respiratory syndrome coronavirus 2, UniProt P0DTC2); type: binding
T1 construct: hexahistidine (C); made in house; host or cells: FreeStyle 293 F cells

[3] = tested on: SARS-CoV-2 S glycoprotein
[4] = tested on: VERO-E6 cells; experiment: Toxicity on VERO-E6 cells, AquaVivid staining; conditions: concentrations up to 100 μM
[5] = tested on: pseudoviral particles bearing the VSV-G; experiment: microbe, parasite or virus in culture; type: cell-based; conditions: Vesicular stomatitis virus, HEK-293T
[6] = tested on: pseudoviral particles bearing the SARS-CoV-1 Spike; experiment: microbe, parasite or virus in culture; type: cell-based; conditions: Severe acute respiratory syndrome coronavirus, HEK-293T

O[C@H](COc1cccc(OC[C@H](O)CN2CCCCC2)c1)CN1CCCCC1 [(R,S)-VE607]
fold less potent than the two other enantiomers in SARS-CoV-2 pseudoviral inhibition ([1]; SARS-CoV-2 S pseudoviral particles): about 2 fold

CN1CCN(c2ccc(CNC(=O)c3ccno3)cc2)CC1 [SSAA09E2, reference compound]
ΔTm (change of melting temperature of RBD) [2]: −0.7 °C
effect on the infection of pseudoviral particles [1]: no effect

C=CCC(/C=C/OCC(O)CN(CC)CCC)OCC(O)CN(CC)CCC (stereo not shown) [VE607]
effect on Spike conformational landscape (up/down) [3]: stabilized the “up” conformation
toxicity [4]: no toxicity was observed
IC50 [5]: > 100 µM
IC50 [6]: 1.47 µM
ΔTm (change of melting temperature of RBD) [2]: −2.3 °C
IC50 ([1]; Severe acute respiratory syndrome coronavirus 2, HEK-293T): 3.06 µM

sACE2
effect on Spike conformational landscape (up/down) [3]: shifted the conformational landscape of the Spike to the “up” conformation
